Experimental data from patent US20240293424A1, “CARNITINE-PALMITOYL-TRANSFERASE-1 (CPT-1) INHIBITORS FOR USE IN A METHOD OF PREVENTING OR TREATING SEPSIS IN A MAMMALIAN SUBJECT” (2N PHARMA APS, priority 2021, published 2024).

What was measured:
HEK293 cells = test: Fatty acid uptake assay using HEK293 cells; format: cell-based; conditions: Homo sapiens, racemic mixture, FIG. 1
Protocol: HEK293 cells were thawed and centrifuged at 400 g in 1 min, whereafter the supernatant was discarded. The cells were resuspended in DMEM+GlutaMax medium (cat #10566016, Invitrogen) containing 10% fetal calf serum (cat #10270-106, Invitrogen) and 1% penicillin/streptomycin (cat #15140-122, Life Technologies). HEK293 cells were seeded into a T25 flask and incubated at 37 degrees Celsius until 80% confluency. When the HEK293 cells reached confluency, cells were counted and seeded in a 96-well plate and with a volume of 10.000 cells/well in medium (as described above) and incubated overnight. Three wells were without cells serving as controls.
The cells were divided into two groups: 1) Example 1, and 2) Untreated. The fatty acid uptake assay (cat #408-100, BioVision) was carried out according to the protocol from BioVision. The only exception to the protocol was that the measurements in the PerkinElmer Multimode Plate Reader Enspire instrument was running overnight.
Statistics was performed in GraphPad Prism version 8.0. Repeated measure two-way ANOVA were conducted as the groups were tested multiple times followed by a multiple comparison Bonferroni post hoc test.

[1] = test system: CLP-induced mouse model of sepsis; test: Cecal ligation and puncture (CLP)-induced mouse model of sepsis; format: in vivo; conditions: CLP mice, 5 mg/kg p.o. 1 h after onset of CLP, assessed 24 h after CLP
Excerpt: This study was be carried out on 10-week old, male C57BL/6 mice (n=5-10 per group) (Charles River Laboratories UK Ltd., Kent, UK) weighing 20-30 g kept under standard laboratory conditions. The animals were allowed to acclimatise to laboratory conditions for at least one week before undergoing experiments. Six mice were housed together in ventilated cages lined with absorbent bedding material. Tubes and chewing blocks were placed in all cages for environmental enrichment. All animals were subjected to 12-h light and dark cycles and the temperature was maintained at 19-23° C. All animals had access to a chow diet and water ad libitum. The cages were cleaned approximately every three days, with water being changed daily. […]
Ten-week-old, male C57BL/6 mice were injected with buprenorphine (0.05 mg/kg, i.p.). […] Temperature was monitored via a rectal probe and kept at 37° C. by a homeothermic mat. […] After 24 h, cardiac function was assessed by echocardiography in vivo. […] The organs (heart, lungs, liver, kidney, spleen) and blood was collected for further analysis to quantify organ injury/dysfunction. […]
Cardiac function in mice was assessed by echocardiography in vivo by means of the Vevo 3100 imaging system (VisualSonics, Toronto, Ontario, Canada). […] During echocardiography, the heart rate was recorded, and a rectal thermometer was recorded to measure core body temperature. […]

CC(=O)N1CCC(c2nc(-c3ccncc3)cs2)N(C(=O)COc2ccccc2)CC1 (single isomer, unassigned) [Example 1, 1-(4-acetyl-7-(4-(pyridin-4-yl)thiazol-2-yl)-1,4-diazepan-1-yl)-2-phenoxyethan-1-one]
IC50 (HEK293 cells): 300 nM
heart rate ([1]; FIG. 2A): maintained
pulmonary artery flow ([1]; FIG. 2G): maintained
